The source of these data is patent US20220119688A1, “LAMINATE, LIQUID CRYSTAL DISPLAY DEVICE, AND ORGANIC ELECTROLUMINESCENT DISPLAY DEVICE” (FUJIFILM Corporation, priority 2019, published 2022).

This series can be described thus: Evaluation of moisture-heat resistance: turbidity (crystal precipitation) in the transparent resin film. It counts as physicochemical. Conditions: amount of 3.5 parts by mass or more. On the procedure: (Evaluation of Moisture-Heat Resistance)
The transparent resin films A-1 to A-14 and B-1 to B-3 were aged for 20 days under moisture heat conditions of a temperature of 85° C. and a humidity of 85%, and the presence or absence of turbidity (crystal precipitation) in the transparent resin film was evaluated according to the following standards.
(Evaluation Standards for Turbidity)
A: Almost no change in appearance such as turbidity due to crystal precipitation is observed.

Molecules are shown by their SMILES.

For `CCCCCCCCCOC(=O)/C(C#N)=C/C=C/N(CC)CC` [UV-4], the crystal precipitation result was “caused crystal precipitation”.
The same measure for `CCCCC(CC)COC(=O)/C(C#N)=C\C=C1/CCCN1C` (centres unmarked) [UV-5]: “caused crystal precipitation”.
